Test results reported in patent US10875844B2, “Salicylate inhibitors of MELK and methods of use” (priority 2015, dated 2020).

Each compound was assayed against T1, MELK (Homo sapiens, UniProt Q14680) (assay: Z′-LYTE biochemical assay (Life Technologies), MELK inhibition).
T1 construct: purchased Life Technologies
T1 sequence (Q14680 whole entry): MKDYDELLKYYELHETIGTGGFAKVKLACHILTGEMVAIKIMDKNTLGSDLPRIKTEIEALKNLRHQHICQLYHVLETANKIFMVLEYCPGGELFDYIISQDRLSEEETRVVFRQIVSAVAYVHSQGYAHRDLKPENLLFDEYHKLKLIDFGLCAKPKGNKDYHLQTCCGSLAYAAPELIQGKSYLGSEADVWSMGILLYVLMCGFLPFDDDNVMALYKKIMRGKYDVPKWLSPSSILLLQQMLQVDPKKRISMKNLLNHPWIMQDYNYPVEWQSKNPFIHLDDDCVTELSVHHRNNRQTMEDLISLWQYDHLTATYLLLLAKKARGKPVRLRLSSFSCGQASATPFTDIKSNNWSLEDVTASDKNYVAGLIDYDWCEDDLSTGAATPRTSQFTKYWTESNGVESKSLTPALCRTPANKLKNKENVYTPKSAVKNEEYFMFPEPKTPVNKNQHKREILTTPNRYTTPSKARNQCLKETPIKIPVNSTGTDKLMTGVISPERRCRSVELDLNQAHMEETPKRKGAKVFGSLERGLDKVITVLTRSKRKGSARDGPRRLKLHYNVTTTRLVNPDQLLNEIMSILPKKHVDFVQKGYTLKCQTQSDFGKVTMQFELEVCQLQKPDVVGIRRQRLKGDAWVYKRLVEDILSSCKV
Protocol: The invention also provides methods for inhibiting MELK, comprising contacting MELK with a compound of the invention in an amount effective to inhibit MELK. In certain embodiments, the method is conducted in vitro. In certain embodiments, the method is conducted in vivo. Inhibition of MELK can be determined by the Z′-LYTE® biochemical assay from Life Technologies (Life Technologies Z′-LYTE® Screening Protocol and Assay Conditions, June 2012, incorporated herein by reference).
The following compounds were made according to the general scheme shown in Example 1. IC50 against MELK was determined by Z′-LYTE® biochemical assay at 25 uM ATP concentration, and are measured in nM.
With `O=C(Nc1ccc2c(c1)CCNCC2)c1ccc(-c2cn[nH]c2)cc1OC(CN1CCCC1)c1ccccc1` (centres unmarked) the IC50 was 213 nM.
Compound `O=C(Nc1ccc2c(c1)CCNCC2)c1ccc(-c2cn[nH]c2)cc1OCCN1CCCC1=O` has an IC50 of 80.6 nM.
Compound `O=C(Nc1ccc2c(c1)CCNCC2)c1ccc(-c2cn[nH]c2)cc1OCCN1CCCC1` has an IC50 of 75.1 nM.
With `O=C(Nc1ccc2c(c1)CCNCC2)c1ccc(-c2cc(Cl)c(O)c(Cl)c2)cc1OCc1ccccc1` [Compound 02-104, 3-(benzyloxy)-3′,5′-dichloro-4′-hydroxy-N-(2,3,4,5-tetrahydro-1H-benzo[d]azepin-7-yl)-[1,1′-biphenyl]-4-carboxamide] the IC50 was 1.92 nM.
`O=C(Nc1cccc2c1CCNCC2)c1ccc(-c2cn[nH]c2)cc1OCc1ccccc1` [Compound 02-103] showed an IC50 of 134 nM.
Compound `O=C(Nc1ccccc1)c1ccc(-c2cn[nH]c2)cc1OCc1ccccc1` has an IC50 of 1160 nM.
Work on `O=C(Nc1ccc2c(c1)CCNCC2)c1ccc(-c2cn[nH]c2)cc1OCc1cccnc1` yielded an IC50 of 16.2 nM.
`CC(=O)N1CCc2ccc(NC(=O)c3ccc(-c4cn[nH]c4)cc3OCc3ccccc3)cc2CC1` [Compound 02-111, N-(3-acetyl-2,3,4,5-tetrahydro-1H-benzo[d]azepin-7-yl)-2-(benzyloxy)-4-(1H-pyrazol-4-yl)benzamide] showed an IC50 of 60.6 nM.
`O=C(Nc1ccc2c(c1)CCNCC2)c1ccc(-c2cn[nH]c2)cc1OC1CCCCC1` was tested, and the IC50 was 2.99 nM.
For `O=C(Nc1ccc2c(c1)CCNCC2)c1ccc(-c2cn[nH]c2)cc1OCC1CCCCC1`, the IC50 was 5.48 nM.
`O=C(Nc1ccc2c(c1)CCNCC2)c1ccc(-c2cn[nH]c2)cc1OCCN1CCOCC1` was tested, and the IC50 was 85.3 nM.
In the case of `O=C(Nc1ccc2c(c1)CCNCC2)c1ccc(-c2cn[nH]c2)cc1OCc1ccccc1` [Compound 02-102, 2-(benzyloxy)-4-(1H-pyrazol-4-yl)-N-(2,3,4,5-tetrahydro-1H-benzo[d]azepin-7-yl)benzamide], the IC50 is reported as 2.17 nM.
Compound `O=C(Nc1ccc2c(c1)CCNCC2)c1ccc(-c2cn[nH]c2)cc1O` has an IC50 of 68.8 nM.
`O=C(Nc1ccc2c(c1)CCNCC2)c1ccc(-c2cn[nH]c2)cc1OC1Cc2ccccc2C1` gave an IC50 of 1.05 nM.
